Measured values taken from patent US8128913B1, “Sunscreen composition with enhanced UV-A absorber stability and methods” (Skinvisible Pharmaceuticals, Inc., priority 2007, dated 2012).

How the values were obtained:
[1] = photostability of sunscreen film on polyethylene under UV light at 365 nm, extraction and C18 chromatography; format: physicochemical; settings: Example 1 composition (no tricontanyl polymer), between 4 and 8 hours of UV exposure, 2340 Watts/m^2
Description: To test the photostability of the sunscreen composition, 200-250 μl of the sunscreen composition was spread evenly over a 25 cm^2 piece of polyethylene film. The amount of sunscreen preparation was determined by weight, and the polyethylene film was dried for 1 hour at 35° C. After drying the film was exposed to […] (2340 Watts/m^2) of UV light at 365 nm for 0, 2, 4, 6 and 8 hours. Following light exposure, sunscreen was extracted with ethanol containing 1% acetic acid. Extracts were separated and quantitated with a C18 column with a methanol:water linear gradient.
The composition contains 3 wt. % avobenzone, 6 wt. % octocrylene, and 4 wt. % oxybenzophenone as sunscreen agents. Photo stability test of the composition was carried out as described in Example 1.

[2] = in vivo; cited from earlier work

| loss of sunscreen agent with UV exposure [1] [%] | Compound | dermal toxicity [2] |
| --- | --- | --- |
| ~50 | COc1ccc(C(=O)CC(=O)c2ccc(C(C)(C)C)cc2)cc1 [avobenzone] | – |
| – | Poly(vinylpyrrolidone/1-hexadecene) [PVPH] | no demonstrable dermal toxicity |
| – | Poly(vinylpyrrolidone/eicosene) [PVPE] | no demonstrable dermal toxicity |
